Columns and labels:
Test in all cases: Broader kinase panel (PerkinElmer)
Assay type in all cases: biochemical
Details in all cases: 100 nM; read-out: Average Percent Inhibition
PKC-beta1 = target: T1, PKC-beta1 (Homo sapiens, UniProt P05771)
T1 construct: purchased In-house HTRF panel (56 kinases) and PerkinElmer (161-kinase panel)
Source text: (§1) […]. […] […].

Abl (H396P) = target: T2, Abl (H396P) (Homo sapiens, UniProt P00519, H396P)
T2 construct: purchased In-house HTRF panel (56 kinases) and PerkinElmer (161-kinase panel)
Source text: as §1

CDK1/Cycline B1 = target: T3, CDK1/Cycline B1 (Homo sapiens, UniProt P06493)
T3 construct: purchased In-house HTRF panel (56 kinases) and PerkinElmer (161-kinase panel)
Source text: as §1

LTK = target: T4, LTK (Homo sapiens, UniProt P29376)
T4 construct: purchased In-house HTRF panel (56 kinases) and PerkinElmer (161-kinase panel)
Source text: as §1

EPHA2 = EPHA2 (Homo sapiens, UniProt P29317)
Source text: as §1

SGK2 = target: T5, SGK2 (Homo sapiens, UniProt Q9HBY8)
T5 construct: purchased In-house HTRF panel (56 kinases) and PerkinElmer (161-kinase panel)
Source text: as §1

PKGa = target: T6, PKGa (Homo sapiens, UniProt Q13976)
T6 construct: purchased In-house HTRF panel (56 kinases) and PerkinElmer (161-kinase panel)
Source text: as §1

PKG1-beta = target: T7, PKG1-beta (Homo sapiens, UniProt Q13976)
T7 construct: purchased In-house HTRF panel (56 kinases) and PerkinElmer (161-kinase panel)
Source text: as §1

MST3 (STK24) = target: T8, MST3 (STK24) (Homo sapiens, UniProt Q9Y6E0)
T8 construct: purchased In-house HTRF panel (56 kinases) and PerkinElmer (161-kinase panel)
Source text: as §1

BRSK1 = target: T9, BRSK1 (Homo sapiens, UniProt Q8TDC3)
T9 construct: purchased In-house HTRF panel (56 kinases) and PerkinElmer (161-kinase panel)
Source text: as §1

CK1-gamma 1 = target: T10, CK1-gamma 1 (Homo sapiens, UniProt Q9HCP0)
T10 construct: purchased In-house HTRF panel (56 kinases) and PerkinElmer (161-kinase panel)
Source text: as §1

CSNK1A1 = target: T11, CSNK1A1 (Homo sapiens, UniProt P48729)
T11 construct: purchased In-house HTRF panel (56 kinases) and PerkinElmer (161-kinase panel)
Source text: as §1

PKC-epsilon = target: T12, PKC-epsilon (Homo sapiens, UniProt Q02156)
T12 construct: purchased In-house HTRF panel (56 kinases) and PerkinElmer (161-kinase panel)
Source text: as §1

Yes = target: T13, Yes (Homo sapiens, UniProt P07947)
T13 construct: purchased In-house HTRF panel (56 kinases) and PerkinElmer (161-kinase panel)
Source text: as §1

DDR2 = target: T14, DDR2 (Homo sapiens, UniProt Q16832)
T14 construct: purchased In-house HTRF panel (56 kinases) and PerkinElmer (161-kinase panel)
Source text: as §1

MARK1 = target: T15, MARK1 (Homo sapiens, UniProt Q9P0L2)
T15 construct: purchased In-house HTRF panel (56 kinases) and PerkinElmer (161-kinase panel)
Source text: as §1

FYN = target: T16, FYN (Homo sapiens, UniProt P06241)
T16 construct: purchased In-house HTRF panel (56 kinases) and PerkinElmer (161-kinase panel)
Source text: as §1

PYK2 = target: T17, PYK2 (Homo sapiens, UniProt Q14289)
T17 construct: purchased In-house HTRF panel (56 kinases) and PerkinElmer (161-kinase panel)
Source text: as §1

IKBKE (IKK epsilon) = target: T18, IKBKE (IKK epsilon) (Homo sapiens, UniProt Q14164)
T18 construct: purchased In-house HTRF panel (56 kinases) and PerkinElmer (161-kinase panel)
Source text: as §1

SRC = target: T19, SRC (Homo sapiens, UniProt P12931)
T19 construct: purchased In-house HTRF panel (56 kinases) and PerkinElmer (161-kinase panel)
Source text: as §1

LOK = LOK (Homo sapiens, UniProt O94804)
Source text: as §1

PDGFR_alpha = target: T20, PDGFR_alpha (Homo sapiens, UniProt P16234)
T20 construct: purchased In-house HTRF panel (56 kinases) and PerkinElmer (161-kinase panel)
Source text: as §1

LCK = LCK (Homo sapiens, UniProt P06239)
Source text: as §1

Casein kinase 1g2 = target: T21, Casein kinase 1g2 (Homo sapiens, UniProt P78368)
T21 construct: purchased In-house HTRF panel (56 kinases) and PerkinElmer (161-kinase panel)
Source text: as §1

BLK = target: T22, BLK (Homo sapiens, UniProt P51451)
T22 construct: purchased In-house HTRF panel (56 kinases) and PerkinElmer (161-kinase panel)
Source text: as §1

Ca MK2a = target: T23, Ca MK2a (Homo sapiens, UniProt Q9UQM7)
T23 construct: purchased In-house HTRF panel (56 kinases) and PerkinElmer (161-kinase panel)
Source text: as §1

FRK = target: T24, FRK (Homo sapiens, UniProt P42685)
T24 construct: purchased In-house HTRF panel (56 kinases) and PerkinElmer (161-kinase panel)
Source text: as §1

PIM3 = target: T25, PIM3 (Homo sapiens, UniProt Q86V86)
T25 construct: purchased In-house HTRF panel (56 kinases) and PerkinElmer (161-kinase panel)
Source text: as §1

FLT1 = target: T26, FLT1 (Homo sapiens, UniProt P17948)
T26 construct: purchased In-house HTRF panel (56 kinases) and PerkinElmer (161-kinase panel)
Source text: as §1

MSK1 = target: T27, MSK1 (Homo sapiens, UniProt O75582)
T27 construct: purchased In-house HTRF panel (56 kinases) and PerkinElmer (161-kinase panel)
Source text: as §1

PAK4 = PAK4 (Homo sapiens, UniProt O96013)
Source text: as §1

EPHB2 = target: T28, EPHB2 (Homo sapiens, UniProt P29323)
T28 construct: purchased In-house HTRF panel (56 kinases) and PerkinElmer (161-kinase panel)
Source text: as §1

EPHA8 = target: T29, EPHA8 (Homo sapiens, UniProt P29322)
T29 construct: purchased In-house HTRF panel (56 kinases) and PerkinElmer (161-kinase panel)
Source text: as §1

PKC-eta = target: T30, PKC-eta (Homo sapiens, UniProt P24723)
T30 construct: purchased In-house HTRF panel (56 kinases) and PerkinElmer (161-kinase panel)
Source text: as §1

PKC-gamma = target: T31, PKC-gamma (Homo sapiens, UniProt P05129)
T31 construct: purchased In-house HTRF panel (56 kinases) and PerkinElmer (161-kinase panel)
Source text: as §1

ROCK1 = ROCK1 (Homo sapiens, UniProt Q13464)
Source text: as §1

p38a = target: T32, p38a (Homo sapiens, UniProt Q16539)
T32 construct: purchased In-house HTRF panel (56 kinases) and PerkinElmer (161-kinase panel)
Source text: as §1

AKT1 = AKT1 (Homo sapiens, UniProt P31749)
Source text: as §1

CHK1 = target: T33, CHK1 (Homo sapiens, UniProt O14757)
T33 construct: purchased In-house HTRF panel (56 kinases) and PerkinElmer (161-kinase panel)
Source text: as §1

Hck = target: T34, Hck (Homo sapiens, UniProt P08631)
T34 construct: purchased In-house HTRF panel (56 kinases) and PerkinElmer (161-kinase panel)
Source text: as §1

p38-gamma = target: T35, p38-gamma (Homo sapiens, UniProt P53778)
T35 construct: purchased In-house HTRF panel (56 kinases) and PerkinElmer (161-kinase panel)
Source text: as §1

Erk1 = target: T36, Erk1 (Homo sapiens, UniProt P27361)
T36 construct: purchased In-house HTRF panel (56 kinases) and PerkinElmer (161-kinase panel)
Source text: as §1

Ca MKII_gamma = target: T37, Ca MKII_gamma (Homo sapiens, UniProt Q13555)
T37 construct: purchased In-house HTRF panel (56 kinases) and PerkinElmer (161-kinase panel)
Source text: as §1

T21 sequence (P78368 whole entry): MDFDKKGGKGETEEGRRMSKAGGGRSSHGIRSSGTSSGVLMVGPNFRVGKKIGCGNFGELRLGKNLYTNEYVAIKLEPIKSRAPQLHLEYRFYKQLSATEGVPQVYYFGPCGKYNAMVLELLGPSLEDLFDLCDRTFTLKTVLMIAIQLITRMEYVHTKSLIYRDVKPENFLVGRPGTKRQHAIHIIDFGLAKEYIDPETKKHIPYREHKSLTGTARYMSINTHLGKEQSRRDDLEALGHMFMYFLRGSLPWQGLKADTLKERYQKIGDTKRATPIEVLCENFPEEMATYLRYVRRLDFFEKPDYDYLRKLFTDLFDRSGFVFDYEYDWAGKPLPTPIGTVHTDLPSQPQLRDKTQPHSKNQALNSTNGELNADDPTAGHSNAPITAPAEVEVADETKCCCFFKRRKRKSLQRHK
T10 sequence (Q9HCP0 whole entry): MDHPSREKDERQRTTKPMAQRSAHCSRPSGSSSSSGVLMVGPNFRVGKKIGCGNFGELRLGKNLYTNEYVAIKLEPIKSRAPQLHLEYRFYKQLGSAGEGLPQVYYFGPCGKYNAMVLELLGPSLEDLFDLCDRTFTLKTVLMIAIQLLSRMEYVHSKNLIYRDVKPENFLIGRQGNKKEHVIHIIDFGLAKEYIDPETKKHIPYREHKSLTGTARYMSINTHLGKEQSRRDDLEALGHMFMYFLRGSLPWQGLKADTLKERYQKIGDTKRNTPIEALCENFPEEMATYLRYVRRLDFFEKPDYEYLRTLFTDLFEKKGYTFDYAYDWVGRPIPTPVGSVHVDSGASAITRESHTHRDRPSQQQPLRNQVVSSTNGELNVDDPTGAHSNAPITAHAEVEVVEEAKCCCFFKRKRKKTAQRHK
T11 sequence (P48729 whole entry): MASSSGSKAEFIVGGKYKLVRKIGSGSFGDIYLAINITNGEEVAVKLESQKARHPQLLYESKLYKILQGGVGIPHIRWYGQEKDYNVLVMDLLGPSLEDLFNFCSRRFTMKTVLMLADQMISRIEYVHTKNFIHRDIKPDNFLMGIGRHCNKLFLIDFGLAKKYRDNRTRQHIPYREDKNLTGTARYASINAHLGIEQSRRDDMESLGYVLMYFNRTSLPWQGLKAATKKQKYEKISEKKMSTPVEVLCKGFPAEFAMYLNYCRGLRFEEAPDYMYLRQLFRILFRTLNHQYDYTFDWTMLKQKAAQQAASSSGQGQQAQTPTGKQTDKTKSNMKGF
T35 sequence (P53778 whole entry): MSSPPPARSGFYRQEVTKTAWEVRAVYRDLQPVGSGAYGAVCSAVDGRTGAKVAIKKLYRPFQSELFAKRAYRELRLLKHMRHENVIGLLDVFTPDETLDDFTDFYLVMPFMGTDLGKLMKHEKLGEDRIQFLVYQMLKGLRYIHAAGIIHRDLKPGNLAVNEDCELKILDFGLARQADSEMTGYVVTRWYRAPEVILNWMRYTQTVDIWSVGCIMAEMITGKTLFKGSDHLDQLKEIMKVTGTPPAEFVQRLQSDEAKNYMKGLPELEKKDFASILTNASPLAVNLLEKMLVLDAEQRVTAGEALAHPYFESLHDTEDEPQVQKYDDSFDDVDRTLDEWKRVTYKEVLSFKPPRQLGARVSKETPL
T19 sequence (P12931 whole entry, species assumed): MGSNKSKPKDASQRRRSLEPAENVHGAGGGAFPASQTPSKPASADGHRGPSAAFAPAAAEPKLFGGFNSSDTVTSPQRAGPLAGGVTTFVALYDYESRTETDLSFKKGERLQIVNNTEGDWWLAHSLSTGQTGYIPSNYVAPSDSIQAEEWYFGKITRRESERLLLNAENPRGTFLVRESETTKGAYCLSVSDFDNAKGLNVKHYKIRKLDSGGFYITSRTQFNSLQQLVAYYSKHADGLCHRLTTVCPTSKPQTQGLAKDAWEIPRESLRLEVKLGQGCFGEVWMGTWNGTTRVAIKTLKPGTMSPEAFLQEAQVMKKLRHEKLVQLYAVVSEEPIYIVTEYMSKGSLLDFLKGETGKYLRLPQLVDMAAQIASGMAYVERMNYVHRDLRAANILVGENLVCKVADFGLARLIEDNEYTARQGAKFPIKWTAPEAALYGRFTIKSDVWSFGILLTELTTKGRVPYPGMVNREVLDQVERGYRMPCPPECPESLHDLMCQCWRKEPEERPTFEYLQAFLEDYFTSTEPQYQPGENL
T6 sequence (Q13976 whole entry): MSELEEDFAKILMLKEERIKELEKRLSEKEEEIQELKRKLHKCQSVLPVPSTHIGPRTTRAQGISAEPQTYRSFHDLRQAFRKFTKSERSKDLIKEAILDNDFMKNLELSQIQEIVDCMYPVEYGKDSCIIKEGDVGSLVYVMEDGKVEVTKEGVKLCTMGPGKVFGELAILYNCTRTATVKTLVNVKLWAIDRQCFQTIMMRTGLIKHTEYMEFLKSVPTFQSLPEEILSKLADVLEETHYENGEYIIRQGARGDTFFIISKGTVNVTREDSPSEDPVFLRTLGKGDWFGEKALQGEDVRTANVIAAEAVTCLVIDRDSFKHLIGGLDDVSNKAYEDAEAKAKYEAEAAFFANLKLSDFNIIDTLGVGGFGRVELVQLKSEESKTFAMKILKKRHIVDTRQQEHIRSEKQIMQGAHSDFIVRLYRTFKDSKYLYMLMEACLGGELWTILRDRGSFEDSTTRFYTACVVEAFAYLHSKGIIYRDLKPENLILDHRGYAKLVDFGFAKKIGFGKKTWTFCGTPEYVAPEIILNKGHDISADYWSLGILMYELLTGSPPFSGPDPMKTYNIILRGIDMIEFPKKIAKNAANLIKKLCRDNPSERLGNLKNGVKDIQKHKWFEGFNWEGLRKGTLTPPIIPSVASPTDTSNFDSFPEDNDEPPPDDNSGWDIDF
T36 sequence (P27361 whole entry): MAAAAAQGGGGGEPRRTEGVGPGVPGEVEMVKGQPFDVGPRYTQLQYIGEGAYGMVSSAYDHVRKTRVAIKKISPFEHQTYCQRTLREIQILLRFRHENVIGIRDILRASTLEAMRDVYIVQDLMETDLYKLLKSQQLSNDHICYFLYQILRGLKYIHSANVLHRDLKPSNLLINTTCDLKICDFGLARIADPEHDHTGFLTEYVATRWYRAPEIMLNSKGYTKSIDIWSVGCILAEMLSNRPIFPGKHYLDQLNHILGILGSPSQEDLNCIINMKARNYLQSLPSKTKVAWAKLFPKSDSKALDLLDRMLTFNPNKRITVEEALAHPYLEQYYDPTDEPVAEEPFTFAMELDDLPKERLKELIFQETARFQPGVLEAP
Sequence of LCK (P06239 whole entry, species assumed): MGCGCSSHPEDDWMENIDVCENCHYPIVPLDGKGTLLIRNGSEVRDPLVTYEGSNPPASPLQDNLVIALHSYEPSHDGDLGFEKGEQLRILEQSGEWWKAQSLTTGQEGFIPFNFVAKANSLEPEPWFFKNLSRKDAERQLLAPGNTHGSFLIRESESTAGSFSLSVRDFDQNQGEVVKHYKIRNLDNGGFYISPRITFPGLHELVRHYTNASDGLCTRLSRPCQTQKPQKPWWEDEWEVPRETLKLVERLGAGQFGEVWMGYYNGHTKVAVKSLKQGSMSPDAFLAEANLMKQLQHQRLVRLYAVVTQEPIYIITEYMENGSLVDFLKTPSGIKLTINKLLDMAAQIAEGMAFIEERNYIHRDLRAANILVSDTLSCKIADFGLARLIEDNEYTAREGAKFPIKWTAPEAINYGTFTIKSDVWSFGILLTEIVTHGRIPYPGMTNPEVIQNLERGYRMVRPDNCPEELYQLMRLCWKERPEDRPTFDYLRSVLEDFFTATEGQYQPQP
Sequence of AKT1 (P31749 whole entry, species assumed): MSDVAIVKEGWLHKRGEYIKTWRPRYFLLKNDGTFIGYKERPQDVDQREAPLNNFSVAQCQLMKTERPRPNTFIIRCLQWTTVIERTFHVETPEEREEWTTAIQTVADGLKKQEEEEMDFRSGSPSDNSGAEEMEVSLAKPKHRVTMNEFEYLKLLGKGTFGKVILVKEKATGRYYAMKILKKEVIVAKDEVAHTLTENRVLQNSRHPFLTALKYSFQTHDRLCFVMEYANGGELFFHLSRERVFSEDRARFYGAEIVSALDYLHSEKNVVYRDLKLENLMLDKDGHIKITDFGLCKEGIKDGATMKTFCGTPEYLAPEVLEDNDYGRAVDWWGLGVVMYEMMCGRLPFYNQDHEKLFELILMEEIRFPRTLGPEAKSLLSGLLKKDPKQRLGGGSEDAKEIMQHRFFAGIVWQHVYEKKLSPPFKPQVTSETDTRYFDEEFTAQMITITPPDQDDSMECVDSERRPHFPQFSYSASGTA
T5 sequence (Q9HBY8 whole entry, species assumed): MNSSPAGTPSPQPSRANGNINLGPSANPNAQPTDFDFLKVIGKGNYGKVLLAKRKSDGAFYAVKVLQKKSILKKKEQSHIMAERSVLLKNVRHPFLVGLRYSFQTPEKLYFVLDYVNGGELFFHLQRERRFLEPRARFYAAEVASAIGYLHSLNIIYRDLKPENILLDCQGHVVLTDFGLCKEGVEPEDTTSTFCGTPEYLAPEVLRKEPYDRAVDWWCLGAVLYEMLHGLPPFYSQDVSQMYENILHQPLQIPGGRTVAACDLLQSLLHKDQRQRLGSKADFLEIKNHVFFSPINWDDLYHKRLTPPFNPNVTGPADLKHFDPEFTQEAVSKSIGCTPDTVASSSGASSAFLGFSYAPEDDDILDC

CCN1C(=O)N(c2c(F)c(OC)cc(OC)c2F)Cc2cnc3[nH]c(CN4CCOCC4)cc3c21 [INCB054828, pemigatinib]
inhibition at 0.1 µM (PKC-beta1): 7%
inhibition at 0.1 µM (Abl (H396P)): -1%
inhibition at 0.1 µM (CDK1/Cycline B1): 5%
inhibition at 0.1 µM (LTK): -17%
inhibition at 0.1 µM (EPHA2): 3%
inhibition at 0.1 µM (SGK2): -2%
inhibition at 0.1 µM (PKGa): 1%
inhibition at 0.1 µM (PKG1-beta): -2%
inhibition at 0.1 µM (MST3 (STK24)): 7%
inhibition at 0.1 µM (BRSK1): -4%
inhibition at 0.1 µM (CK1-gamma 1): -3%
inhibition at 0.1 µM (CSNK1A1): -1%
inhibition at 0.1 µM (PKC-epsilon): 1%
inhibition at 0.1 µM (Yes): 3%
inhibition at 0.1 µM (DDR2): -1%
inhibition at 0.1 µM (MARK1): 10%
inhibition at 0.1 µM (FYN): -1%
inhibition at 0.1 µM (PYK2): -1%
inhibition at 0.1 µM (IKBKE (IKK epsilon)): -2%
inhibition at 0.1 µM (SRC): 1%
inhibition at 0.1 µM (LOK): -1%
inhibition at 0.1 µM (PDGFR_alpha): -4%
inhibition at 0.1 µM (LCK): -2%
inhibition at 0.1 µM (Casein kinase 1g2): -1%
inhibition at 0.1 µM (BLK): -10%
inhibition at 0.1 µM (Ca MK2a): 2%
inhibition at 0.1 µM (FRK): 0%
inhibition at 0.1 µM (PIM3): -4%
inhibition at 0.1 µM (FLT1): 13%
inhibition at 0.1 µM (MSK1): 1%
inhibition at 0.1 µM (PAK4): 5%
inhibition at 0.1 µM (EPHB2): 3%
inhibition at 0.1 µM (EPHA8): -2%
inhibition at 0.1 µM (PKC-eta): -4%
inhibition at 0.1 µM (PKC-gamma): 7%
inhibition at 0.1 µM (ROCK1): -3%
inhibition at 0.1 µM (p38a): 1%
inhibition at 0.1 µM (AKT1): 2%
inhibition at 0.1 µM (CHK1): 0%
inhibition at 0.1 µM (Hck): -3%
inhibition at 0.1 µM (p38-gamma): -3%
inhibition at 0.1 µM (Erk1): 1%
inhibition at 0.1 µM (Ca MKII_gamma): -9%
